Measurements taken from patent US9567345B2, “Pharmaceutically active pyrazolo-triazine derivatives” (LEAD DISCOVERY CENTER GMBH, priority 2012, dated 2017).
pIC50: −log10 of the molar value. Like-named read-outs stand apart in the source and are kept apart here.

What was measured:
CDK9/Cyclin T1 = CDK9/Cyclin T1 (Homo sapiens, UniProt P50750); test: CDK9 Enzymatic Activity Assay (Lance Kinase Activity Assay, FRET); type: biochemical; conditions: Table 5B, class symbols per IC50 [nM] ranges of b581; read-out: CDK9: Selectivity of CDK7 inhibition over CDK9 inhibition
Description: (§1) This protocol describes how the Lance Kinase Activity Assay was performed to determine IC50 values of compounds of general formula (I) against CDK/Cyclin complexes. The principle behind this enzymatic assay is based upon the phosphorylation of the Ulight-Peptide Substrat. It is detected by using a specific EU-labeled anti-phospho peptide antibody.
(§2) Binding of an inhibitor to the kinase prevents phosphorylation of the Ulight-MBP Substrat, resulting in a loss of FRET.
CDK9 Enzymatic Activity Assay
(§3) The compounds of general formula (I) exemplary summarized in Table 1 were diluted from a 10 mM DMSO stock solution 1:10 in a total volume of 15 μl DMSO. This compound predilution was then serial diluted 1:3 over 8 steps in DMSO and briefly spun down. Each compound solution was now diluted 1:20 in Enzymatic Buffer (HEPES: 50 mM, pH: 7.5; MgCl2: 10 mM; EGTA: 1 mM; DTT: 2 mM; Tween-20: 0.01%), mixed thoroughly and spun down.
(§4) For positive controls, 2 μl of DMSO working solution were mixed with 6 μl CDK9/cyclin T1/substrate working solution and 2 μl ATP working solution. Positive and negative controls were calculated from at least 8 different wells. The 384 well plates were mixed in a Teleshaker plate mixer (Beckman Coulter, Brea, Calif., USA) at 2000 rpm for 40 sec, and incubated for 1 h at room temperature before addition of 10 μl LANCE Detection Buffer (1×; EDTA: […]; Eu-Anti-P-MBP: 4 nM) per well. Plates were mixed in a Teleshaker plate mixer (Beckman Coulter, Brea, Calif., USA) at 2000 rpm for 40 sec, followed by incubation with Detection Buffer for 1 h, and reading. […] IC50 values were determined from the sigmoidal dose response curves with the software Quattro Workflow (Quattro GmbH, Munich, Germany).

CDK7/CycH/Mat1 = CDK7/CycH/Mat1 (Homo sapiens, UniProt P50613); test: CDK7 Enzymatic Activity Assay (Lance Kinase Activity Assay, FRET); type: biochemical; conditions: for IC50: CDK7/CycH/Mat1, 25 μM ATP final, class ranges, read-out: CDK7: IC50 [nM] for CDK7 inhibition; for pIC50: read-out: IC50 CDK7
Description: as §1, §2
CDK7 Enzymatic Activity Assay
as §3
as §4, with “CDK7/CycH/Mat1/substrate” for “CDK9/cyclin T1/substrate”

Chain of CDK7/CycH/Mat1 (P50613 whole entry): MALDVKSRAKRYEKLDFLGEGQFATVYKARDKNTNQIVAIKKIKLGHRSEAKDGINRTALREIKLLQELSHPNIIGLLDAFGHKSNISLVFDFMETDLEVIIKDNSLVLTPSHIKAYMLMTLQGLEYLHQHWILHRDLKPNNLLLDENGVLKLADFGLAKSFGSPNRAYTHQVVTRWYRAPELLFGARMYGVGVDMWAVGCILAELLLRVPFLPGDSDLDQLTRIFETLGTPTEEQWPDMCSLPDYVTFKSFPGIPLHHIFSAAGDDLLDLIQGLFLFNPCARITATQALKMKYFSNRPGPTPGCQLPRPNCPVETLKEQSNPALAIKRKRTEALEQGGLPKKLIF
Chain of CDK9/Cyclin T1 (P50750 whole entry): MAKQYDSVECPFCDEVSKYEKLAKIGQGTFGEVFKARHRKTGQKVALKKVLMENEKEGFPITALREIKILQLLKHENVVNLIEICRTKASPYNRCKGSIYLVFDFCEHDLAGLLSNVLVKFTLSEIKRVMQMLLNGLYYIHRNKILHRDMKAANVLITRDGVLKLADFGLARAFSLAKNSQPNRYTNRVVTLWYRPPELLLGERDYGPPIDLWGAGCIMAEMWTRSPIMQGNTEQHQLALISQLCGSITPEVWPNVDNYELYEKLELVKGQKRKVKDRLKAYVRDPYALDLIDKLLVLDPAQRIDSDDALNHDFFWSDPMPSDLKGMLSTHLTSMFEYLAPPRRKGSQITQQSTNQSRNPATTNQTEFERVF
Chain of CDK9/Cyclin T1 (O60563 whole entry partner): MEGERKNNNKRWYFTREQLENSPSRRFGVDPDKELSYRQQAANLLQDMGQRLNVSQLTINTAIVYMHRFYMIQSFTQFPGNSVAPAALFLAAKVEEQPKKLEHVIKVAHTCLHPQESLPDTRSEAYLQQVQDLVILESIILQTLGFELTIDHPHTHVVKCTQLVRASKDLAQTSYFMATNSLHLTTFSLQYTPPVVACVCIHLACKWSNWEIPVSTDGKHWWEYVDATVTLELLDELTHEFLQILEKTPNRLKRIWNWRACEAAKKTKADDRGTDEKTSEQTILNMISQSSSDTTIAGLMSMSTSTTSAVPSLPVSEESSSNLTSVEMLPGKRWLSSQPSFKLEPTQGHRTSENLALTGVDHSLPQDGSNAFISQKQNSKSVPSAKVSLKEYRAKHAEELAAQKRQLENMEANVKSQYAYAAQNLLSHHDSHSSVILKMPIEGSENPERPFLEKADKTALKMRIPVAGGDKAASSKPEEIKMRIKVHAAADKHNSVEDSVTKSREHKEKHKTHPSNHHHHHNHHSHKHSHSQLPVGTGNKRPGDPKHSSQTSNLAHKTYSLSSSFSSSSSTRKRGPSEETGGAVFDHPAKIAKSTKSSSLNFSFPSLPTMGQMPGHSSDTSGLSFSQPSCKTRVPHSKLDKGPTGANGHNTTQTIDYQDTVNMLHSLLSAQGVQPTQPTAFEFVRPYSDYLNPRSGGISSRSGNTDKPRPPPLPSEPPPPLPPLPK

Row | Structure (SMILES) | IC50 (CDK9/Cyclin T1) | IC50 (CDK7/CycH/Mat1) | pIC50 (CDK7/CycH/Mat1; Table 6) | pIC50 (CDK7/CycH/Mat1; Table 7)
1 | CC(C)c1cnn2c(NCc3c(Cl)cccc3Cl)nc(OC3CCN(C)CC3)nc12 [(VII-63), N-(2,6-dichlorobenzyl)-8-isopropyl-2-((1-methylpiperidin-4-yl)oxy)pyrazolo[1,5-a][1,3,5]triazin-4-amine] | > 2500 nM | 10 to 25 nM |  | 
2 | CC(C)c1cnn2c(NCc3ccccc3-n3cccn3)nc(N3CC4(CNC4)C3)nc12 [(VIII-10), N-(2-(1H-pyrazol-1-yl)benzyl)-8-isopropyl-2-(2,6-diazaspiro[3.3]heptan-2-yl)pyrazolo[1,5-a][1,3,5]triazin-4-amine] | > 2500 nM | 5 to 10 nM |  | 
3 | COc1ccccc1[C@H](C)Nc1nc(N[C@@H]2CCCNC2)nc2c(C(C)C)cnn12 [(VIII-31), 8-isopropyl-N4-((S)-1-(2-methoxyphenyl)ethyl)-N2-((R)-piperidin-3-yl)pyrazolo[1,5-a][1,3,5]triazine-2,4-diamine] | > 2500 nM | 5 to 10 nM |  | 
4 | CC(C)c1cnn2c(NCc3ccccc3-n3cccn3)nc(N3CCCC34CCNC4)nc12 (stereo not shown) [(VIII-13), N-(2-(1H-pyrazol-1-yl)benzyl)-8-isopropyl-2-(1,7-diazaspiro[4.4]nonan-1-yl)pyrazolo[1,5-a][1,3,5]triazin-4-amine] | > 2500 nM | 5 to 10 nM |  | 
5 | CC(C)c1cnn2c(NCc3ccccc3N(C)C)nc(OC3CCN(C)CC3)nc12 [(VII-54), N-(2-(dimethylamino)benzyl)-8-isopropyl-2-((1-methylpiperidin-4-yl)oxy)pyrazolo[1,5-a][1,3,5]triazin-4-amine] | 50 to 500 nM | 5 to 10 nM |  | 
6 | CC(C)c1cnn2c(NCc3ccccc3N3CCC3=O)nc(O[C@@H]3CCCNC3)nc12 [(VII-40), (R)-1-(2-(((8-isopropyl-2-(piperidin-3-yloxy)pyrazolo[1,5-a][1,3,5]triazin-4-yl)amino)methyl)phenyl)azetidin-2-one] | > 2500 nM | > 25 nM |  | 
7 | CC(C)c1cnn2c(NCc3ccccc3-n3cccn3)nc(OC3CNC3)nc12 [(VII-141), N-(2-(1H-pyrazol-1-yl)benzyl)-2-(azetidin-3-yloxy)-8-isopropylpyrazolo[1,5-a][1,3,5]triazin-4-amine] |  | 10 to 25 nM |  | 
8 | CC(C)c1cnn2c(NCc3ccccc3NC(=O)Nc3ccccc3)nc(O[C@@H]3CCCNC3)nc12 [(VII-111), (R)-1-(2-(((8-isopropyl-2-(piperidin-3-yloxy)pyrazolo[1,5-a][1,3,5]triazin-4-yl)amino)methyl)phenyl)-3-phenylurea] |  | 10 to 25 nM |  | 
9 | CC(C)c1cnn2c(NCc3ccccc3-n3cccn3)nc(N3CCC4(CCNC4)CC3)nc12 [(VIII-09), N-(2-(1H-pyrazol-1-yl)benzyl)-8-isopropyl-2-(2,8-diazaspiro[4.5]decan-8-yl)pyrazolo[1,5-a][1,3,5]triazin-4-amine] | > 2500 nM | 5 to 10 nM |  | 
10 | CC(C)c1cnn2c(NCc3ccccc3)nc(O[C@@H]3CCCNC3)nc12 [C-II, reference compound] |  |  | > 8.30 | 
11 | CC(C)c1cnn2c(NCc3ccccc3C(F)(F)F)nc(OC3CCN(C)CC3)nc12 [(VII-058), 8-isopropyl-2-((1-methylpiperidin-4-yl)oxy)-N-(2-(trifluoromethyl)benzyl)pyrazolo[1,5-a][1,3,5]triazin-4-amine] |  | > 25 nM |  | 
12 | CC(C)c1cnn2c(NCc3ccccc3)nc(OC3CCN(C)CC3)nc12 [C-I, reference compound] |  |  | > 8.30 | 

Now from value to compound:

Row | IC50 (CDK9/Cyclin T1) | IC50 (CDK7/CycH/Mat1) | pIC50 (CDK7/CycH/Mat1; Table 6) | pIC50 (CDK7/CycH/Mat1; Table 7) | Structure (SMILES)
13 | > 2500 nM | < 5 nM |  |  | CC(C)c1cnn2c(NCc3ccccc3-n3cccn3)nc(N3CCC4(CCCCN4)C3)nc12 (stereo not shown) [(VIII-06), N-(2-(1H-pyrazol-1-yl)benzyl)-8-isopropyl-2-(2,6-diazaspiro[4.5]decan-2-yl)pyrazolo[1,5-a][1,3,5]triazin-4-amine]
14 | > 2500 nM | < 5 nM |  |  | CC(C)c1cnn2c(NCc3ccccc3-n3cccn3)nc(N3CC4(CCNC4)C3)nc12 [(VIII-02), N-(2-(1H-pyrazol-1-yl)benzyl)-8-isopropyl-2-(2,6-diazaspiro[3.4]octan-2-yl)pyrazolo[1,5-a][1,3,5]triazin-4-amine]
15 | > 2500 nM | < 5 nM |  |  | CC(C)c1cnn2c(NCc3ccccc3-n3cccn3)nc(N3CC4(CCNCC4)C3)nc12 [(VIII-12), N-(2-(1H-pyrazol-1-yl)benzyl)-8-isopropyl-2-(2,7-diazaspiro[3.5]nonan-2-yl)pyrazolo[1,5-a][1,3,5]triazin-4-amine]
16 | > 2500 nM | < 5 nM |  |  | CC(C)c1cnn2c(N[C@@H](C)c3cccc4ccccc34)nc(OC3CCN(C)CC3)nc12 [(VII-69), (S)-8-isopropyl-2-((1-methylpiperidin-4-yl)oxy)-N-(1-(naphthalen-1-yl)ethyl)pyrazolo[1,5-a][1,3,5]triazin-4-amine]
17 | > 2500 nM | < 5 nM |  |  | Cc1nccn1-c1ccccc1CNc1nc(OC2CCNCC2)nc2c(C(C)C)cnn12 [(VII-24), 8-isopropyl-N-(2-(2-methyl-1H-imidazol-1-yl)benzyl)-2-(piperidin-4-yloxy)pyrazolo[1,5-a][1,3,5]triazin-4-amine]
18 | > 2500 nM | < 5 nM |  |  | CC(C)c1cnn2c(NCc3ccccc3-c3cccnc3)nc(OC3CCN(C)CC3)nc12 [(VII-45), 8-isopropyl-2-((1-methylpiperidin-4-yl)oxy)-N-(2-(pyridin-3-yl)benzyl)pyrazolo[1,5-a][1,3,5]triazin-4-amine]
19 | > 2500 nM | < 5 nM |  |  | CC(C)c1cnn2c(NCc3ccccc3-c3nnn(C)n3)nc(N3CCC4(CCCN4)CC3)nc12 [(VIII-19), 8-isopropyl-N-(2-(2-methyl-2H-tetrazol-5-yl)benzyl)-2-(1,8-diazaspiro[4.5]decan-8-yl)pyrazolo[1,5-a][1,3,5]triazin-4-amine]
20 |  | < 5 nM |  |  | CC(C)c1cnn2c(NCc3ccccc3Oc3ccccc3)nc(OC3CCN(C)CC3)nc12 [(VII-47), 8-isopropyl-2-((1-methylpiperidin-4-yl)oxy)-N-(2-phenoxybenzyl)pyrazolo[1,5-a][1,3,5]triazin-4-amine]
21 |  | < 5 nM |  | > 8.30 | CC(=O)Nc1ccccc1CNc1nc(O[C@@H]2CCCNC2)nc2c(C(C)C)cnn12 [(VII-51), (R)-N-(2-(((8-isopropyl-2-(piperidin-3-yloxy)pyrazolo[1,5-a][1,3,5]triazin-4-yl)amino)methyl)phenyl)acetamide]
22 |  | < 5 nM |  |  | CC(C)c1cnn2c(NCc3ccccc3-n3cccn3)nc(OC3CC4(CNC4)C3)nc12 [(VII-04), N-(2-(1H-pyrazol-1-yl)benzyl)-2-(2-azaspiro[3.3]heptan-6-yloxy)-8-isopropylpyrazolo[1,5-a][1,3,5]triazin-4-amine]
23 |  | < 5 nM |  |  | CC(C)c1cnn2c(NCc3ccccc3-c3ncco3)nc(O[C@@H]3CCCNC3)nc12 [(VII-49), (R)-8-isopropyl-N-(2-(oxazol-2-yl)benzyl)-2-(piperidin-3-yloxy)pyrazolo[1,5-a][1,3,5]triazin-4-amine]
24 |  | < 5 nM |  |  | CC(C)c1cnn2c(NCc3ccccc3Oc3ccccc3)nc(O[C@@H]3CCCNC3)nc12 [(VII-48), (R)-8-isopropyl-N-(2-phenoxybenzyl)-2-(piperidin-3-yloxy)pyrazolo[1,5-a][1,3,5]triazin-4-amine]
25 |  | < 5 nM |  |  | CC(C)c1cnn2c(NCc3ccccc3-c3ccco3)nc(O[C@@H]3CCCNC3)nc12 [(VII-50), (R)-N-(2-(furan-2-yl)benzyl)-8-isopropyl-2-(piperidin-3-yloxy)pyrazolo[1,5-a][1,3,5]triazin-4-amine]
